System: rainbow trout gut cells (RT-gut)
Test: Uptake and intracellular stability of fluorescently labelled poly IC (fluorescent microscopy)
Assay type: cell-based
Conditions: 1 ug/ml, 20 degree treatment, 4 hours
Procedure: Per Example 7, low molecular weight poly:IC was labelled with a fluorescent dye, then left as “free” poly:IC or coupled with Cat-PhG (0.38) at a 1:1 (w/w) ratio. Free poly:IC or PhG coupled poly:IC was added to RT-gut cells at a concentration of 1 ug/ml and incubated at 4° C. or 20° C. for 4 hours. Cells were imaged via fluorescent microscopy, and average intracellular fluorescence intensity was measured from 5 randomly selected cells.
Low molecular weight poly IC was labelled with the Ulysis AlexaFluor 546 labelling kit (Invitrogen), then left as “free” poly IC or couple with cationic PhG (0.38) at a 1:1 (w/w) ratio. Free poly IC or PhG coupled poly IC was added to RT-gut cells at a concentration of 1 ug/ml and incubated at 4° C. or 20° C. for 4 hours. Cells were imaged via fluorescent microscopy, and average intracellular fluorescence intensity was measured from 5 randomly selected cells.

**Q.** For “polyinosinic:polycytidylic acid [free poly IC]”, which intracellular fluorescence is on record?
**A.** The intracellular fluorescence was “no fluorescence was detected”.
